Target: T1, human vasopressin V1b receptor (Homo sapiens, UniProt P47901)
T1 construct: expressed in transfected cells; host or cells: CHO-K1 (cell line hV1b_3H2_CHO), membrane preparation
T1 sequence (P47901 1-424): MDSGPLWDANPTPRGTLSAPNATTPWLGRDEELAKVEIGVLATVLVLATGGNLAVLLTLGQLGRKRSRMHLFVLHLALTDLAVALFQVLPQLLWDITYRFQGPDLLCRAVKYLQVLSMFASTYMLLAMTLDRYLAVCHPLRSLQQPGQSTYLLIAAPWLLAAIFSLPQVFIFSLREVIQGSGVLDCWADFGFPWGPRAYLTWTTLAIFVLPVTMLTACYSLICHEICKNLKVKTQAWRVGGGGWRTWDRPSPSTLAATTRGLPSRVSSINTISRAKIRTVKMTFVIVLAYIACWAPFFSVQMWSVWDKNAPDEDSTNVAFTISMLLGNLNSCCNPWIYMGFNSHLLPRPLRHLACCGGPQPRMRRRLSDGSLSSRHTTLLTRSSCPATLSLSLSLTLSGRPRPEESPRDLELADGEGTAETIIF
Assay: Vasopressin V1b receptor binding test
Settings: membranes of CHO-K1 cells with human V1b receptor, displacement of 1.5 nM 3H-AVP; for compounds with more than one stereogenic center the diastereomer with greater affinity
Summary of the method: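 Affinity constants (Ki) came from nonlinear regression of triplicate scintillation counts after filtration separated bound from free radioligand. Compounds competed at human V1b membranes for 60 min, room temperature, in pH 7.4 tris/MgCl2/BSA buffer with 2% DMSO; 1 μM AVP defined nonspecific binding.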

SMILES | Ki [nM]
COc1ccc(S(=O)(=O)N2C(=O)C(c3ccc(CN4CCN(C)CC4)cc3OC)(N3C[C@H](O)C[C@H]3c3ncco3)c3cc(Cl)ccc32)cc1 (stereo partly drawn) [Example 165, 5-Chloro-3-((2S,4R)-4-hydroxy-2-oxazol-2-yl-pyrrolidin-1-yl)-1-(4-methoxybenzenesulfonyl)-3-[2-methoxy-4-(4-methylpiperazin-1-ylmethyl)phenyl]-1,3-dihydroindol-2-one] | < 10
COc1ccc(S(=O)(=O)N2C(=O)C(c3ccc(CN4CCN(C(C)C)CC4)cc3OC)(N3C[C@H](O)C[C@H]3c3ncco3)c3cc(Cl)ccc32)cc1 (stereo partly drawn) [Example 166, 5-Chloro-3-((2S,4R)-4-hydroxy-2-oxazol-2-yl-pyrrolidin-1-yl)-3-[4-(4-isopropylpiperazin-1-ylmethyl)-2-methoxyphenyl]-1-(4-methoxybenzenesulfonyl)-1,3-dihydroindol-2-one] | < 10
CNCc1cnc(OC)c(C2(N3CCC[C@H]3c3ncco3)C(=O)N(S(=O)(=O)c3ccc(OC)cc3)c3ccc(Cl)cc32)c1 (stereo partly drawn) [Example 167, 5-Chloro-1-(4-methoxybenzenesulfonyl)-3-(2-methoxy-5-methylaminomethylpyridin-3-yl)-3-((S)-2-oxazol-2-yl-pyrrolidin-1-yl)-1,3-dihydroindol-2-one] | < 10
COc1ccc(S(=O)(=O)N2C(=O)C(c3cc(CNC4CC4)ccc3OC)(N3CCC[C@H]3c3ncco3)c3cc(Cl)ccc32)cc1 (stereo partly drawn) [Example 168, 5-Chloro-3-(5-cyclopropylaminomethyl-2-methoxyphenyl)-1-(4-methoxybenzenesulfonyl)-3-((S)-2-oxazol-2-yl-pyrrolidin-1-yl)-1,3-dihydroindol-2-one] | < 10
COc1ccc(S(=O)(=O)N2C(=O)C(c3ccc(CN4CCCCC4)cc3OC)(N3C[C@H](O)C[C@H]3c3ncco3)c3cc(Cl)ccc32)cc1 (stereo partly drawn) [Example 169, 5-Chloro-3-((2S,4R)-4-hydroxy-2-oxazol-2-yl-pyrrolidin-1-yl)-1-(4-methoxybenzenesulfonyl)-3-(2-methoxy-4-piperidin-1-ylmethylphenyl)-1,3-dihydroindol-2-one] | < 10
CCN(C)Cc1ccc(C2(N3C[C@H](O)C[C@H]3c3ncco3)C(=O)N(S(=O)(=O)c3ccc(OC)cc3)c3ccc(Cl)cc32)c(OC)c1 (stereo partly drawn) [Example 170, 5-Chloro-3-{4-[(ethylmethylamino)methyl]-2-methoxyphenyl}-3-((2S,4R)-4-hydroxy-2-oxazol-2-yl-pyrrolidin-1-yl)-1-(4-methoxybenzenesulfonyl)-1,3-dihydroindol-2-one] | < 10
COc1ccc(CN2CCN(C)CC2)cc1C1(N2CCC[C@H]2c2ncco2)C(=O)N(S(=O)(=O)c2cccs2)c2ccc(Cl)cc21 (stereo partly drawn) [Example 171, 5-Chloro-3-[2-methoxy-5-(4-methylpiperazin-1-ylmethyl)phenyl]-3-((S)-2-oxazol-2-yl-pyrrolidin-1-yl)-1-(thiophene-2-sulfonyl)-1,3-dihydroindol-2-one] | 10 to 100
COc1ccc(S(=O)(=O)N2C(=O)C(c3ccc(CN(C)C)cc3OC)(N3C[C@H](O)C[C@H]3c3ncco3)c3cc(C#N)ccc32)cc1 (stereo partly drawn) [Example 172, 5-Cyano-3-(4-dimethylaminomethyl-2-methoxyphenyl)-3-((2S,4R)-4-hydroxy-2-oxazol-2-yl-pyrrolidin-1-yl)-1-(4-methoxybenzenesulfonyl)-1,3-dihydroindol-2-one] | 10 to 100
COc1ccc(S(=O)(=O)N2C(=O)C(c3cc(CN4CCN(C)CC4)ccc3F)(N3CCC[C@H]3c3ncco3)c3cc(Cl)ccc32)cc1 (stereo partly drawn) [Example 173, 5-Chloro-3-[2-fluoro-5-(4-methylpiperazin-1-ylmethyl)phenyl]-1-(4-methoxybenzenesulfonyl)-3-((S)-2-oxazol-2-yl-pyrrolidin-1-yl)-1,3-dihydroindol-2-one] | 10 to 100
COc1ccc(S(=O)(=O)N2C(=O)C(c3cc(CN(C)C)ccc3F)(N3CCC[C@H]3c3ncco3)c3cc(Cl)ccc32)cc1 (stereo partly drawn) [Example 174, 5-Chloro-3-(5-dimethylaminomethyl-2-fluorophenyl)-1-(4-methoxybenzenesulfonyl)-3-((S)-2-oxazol-2-yl-pyrrolidin-1-yl)-1,3-dihydroindol-2-one] | 10 to 100
COc1ccc(S(=O)(=O)N2C(=O)C(c3cc(CNC(C)C)ccc3F)(N3CCC[C@H]3c3ncco3)c3cc(Cl)ccc32)cc1 (stereo partly drawn) [Example 175, 5-Chloro-3-[2-fluoro-5-(isopropylaminomethyl)phenyl]-1-(4-methoxybenzenesulfonyl)-3-((S)-2-oxazol-2-yl-pyrrolidin-1-yl)-1,3-dihydroindol-2-one] | 10 to 100

Continued, values first:

Ki [nM] | SMILES
10 to 100 | CCNCc1ccc(F)c(C2(N3CCC[C@H]3c3ncco3)C(=O)N(S(=O)(=O)c3ccc(OC)cc3)c3ccc(Cl)cc32)c1 (stereo partly drawn) [Example 176, 5-Chloro-3-(5-ethylaminomethyl-2-fluorophenyl)-1-(4-methoxybenzenesulfonyl)-3-((S)-2-oxazol-2-yl-pyrrolidin-1-yl)-1,3-dihydroindol-2-one]
< 10 | CCCNCc1ccc(OC)c(C2(N3C[C@H](O)C[C@H]3c3ncco3)C(=O)N(S(=O)(=O)c3ccc(OC)cc3)c3ccc(C#N)cc32)c1 (stereo partly drawn) [Example 177, 5-Cyano-3-((2S,4R)-4-hydroxy-2-oxazol-2-yl-pyrrolidin-1-yl)-1-(4-methoxybenzenesulfonyl)-3-(2-methoxy-5-propylaminomethylphenyl)-1,3-dihydroindol-2-one]
< 10 | COc1ccc(S(=O)(=O)N2C(=O)C(c3ccc(CN4CCN(C)CC4)cc3OC)(N3C[C@H](O)C[C@H]3c3ncco3)c3cc(C#N)ccc32)cc1 (stereo partly drawn) [Example 178, 5-Cyano-3-((2S,4R)-4-hydroxy-2-oxazol-2-yl-pyrrolidin-1-yl)-1-(4-methoxybenzenesulfonyl)-3-[2-methoxy-4-(4-methylpiperazin-1-ylmethyl)phenyl]-1,3-dihydroindol-2-one]
< 10 | CCN1CCN(Cc2ccc(C3(N4C[C@H](O)C[C@H]4c4ncco4)C(=O)N(S(=O)(=O)c4ccc(OC)cc4)c4ccc(C#N)cc43)c(OC)c2)CC1 (stereo partly drawn) [Example 179, 5-Cyano-3-[4-(4-ethylpiperazin-1-ylmethyl)-2-methoxyphenyl]-3-((2S,4R)-4-hydroxy-2-oxazol-2-yl-pyrrolidin-1-yl)-1-(4-methoxybenzenesulfonyl)-1,3-dihydroindol-2-one]
< 10 | COc1cc(CN2CCN(C)CC2)ccc1C1(N2C[C@H](O)C[C@H]2c2ncco2)C(=O)N(S(=O)(=O)c2ccc(C#N)cc2)c2ccc(Cl)cc21 (stereo partly drawn) [Example 180, 5-Chloro-3-((2S,4R)-4-hydroxy-2-oxazol-2-yl-pyrrolidin-1-yl)-3-[2-methoxy-4-(4-methylpiperazin-1-ylmethyl)phenyl]-1-(4-cyanobenzenesulfonyl)-1,3-dihydroindol-2-one]
< 10 | CCN1CCN(Cc2ccc(C3(N4C[C@H](O)C[C@H]4c4ncco4)C(=O)N(S(=O)(=O)c4ccc(C#N)cc4)c4ccc(Cl)cc43)c(OC)c2)CC1 (stereo partly drawn) [Example 181, 5-Chloro-3-[4-(4-ethylpiperazin-1-ylmethyl)-2-methoxyphenyl]-3-((2S,4R)-4-hydroxy-2-oxazol-2-yl-pyrrolidin-1-yl)-1-(4-cyanobenzenesulfonyl)-1,3-dihydroindol-2-one]
10 to 100 | COc1cc(CN(C)C)ccc1C1(N2C[C@H](O)C[C@H]2c2ncco2)C(=O)N(S(=O)(=O)c2ccc(C#N)cc2)c2ccc(Cl)cc21 (stereo partly drawn) [Example 182, 5-Chloro-3-(4-dimethylaminomethyl-2-methoxyphenyl)-3-((2S,4R)-4-hydroxy-2-oxazol-2-yl-pyrrolidin-1-yl)-1-(4-cyanobenzenesulfonyl)-1,3-dihydroindol-2-one]
10 to 100 | COc1cc(CN2CCCC2)ccc1C1(N2C[C@H](O)C[C@H]2c2ncco2)C(=O)N(S(=O)(=O)c2ccc(C#N)cc2)c2ccc(Cl)cc21 (stereo partly drawn) [Example 183, 5-Chloro-3-((2S,4R)-4-hydroxy-2-oxazol-2-yl-pyrrolidin-1-yl)-3-(2-methoxy-4-(pyrrolidin-1-ylmethyl)phenyl)-1-(4-cyanobenzenesulfonyl)-1,3-dihydroindol-2-one]
< 10 | COc1ccc(S(=O)(=O)N2C(=O)C(c3cc(CN4CCN(C)CC4)cc4c3OCO4)(N3CCC[C@H]3c3ncco3)c3cc(Cl)ccc32)cc1 (stereo partly drawn) [Example 184, 5-Chloro-1-(4-methoxybenzenesulfonyl)-3-[6-(4-methylpiperazin-1-ylmethyl)benzo[1,3]dioxol-4-yl]-3-((S)-2-oxazol-2-yl-pyrrolidin-1-yl)-1,3-dihydroindol-2-one]
10 to 100 | CNCc1cc2c(c(C3(N4CCC[C@H]4c4ncco4)C(=O)N(S(=O)(=O)c4ccc(OC)cc4)c4ccc(Cl)cc43)c1)OCO2 (stereo partly drawn) [Example 185, 5-Chloro-1-(4-methoxybenzenesulfonyl)-3-(6-methylaminomethylbenzo[1,3]dioxol-4-yl)-3-((S)-2-oxazol-2-yl-pyrrolidin-1-yl)-1,3-dihydroindol-2-one]
10 to 100 | COc1ccc(S(=O)(=O)N2C(=O)C(c3cc(CN(C)C)cc4c3OCO4)(N3CCC[C@H]3c3ncco3)c3cc(Cl)ccc32)cc1 (stereo partly drawn) [Example 186, 5-Chloro-3-(6-dimethylaminomethylbenzo[1,3]dioxol-4-yl)-1-(4-methoxybenzenesulfonyl)-3-((S)-2-oxazol-2-yl-pyrrolidin-1-yl)-1,3-dihydroindol-2-one]
